Data on one compound can be found in patent US20070248488A1, “METHOD AND APPARATUS FOR REDUCING MICROORGANISMS IN WATER” (VORTEX CORPORATION, priority 2006, published 2007).

In one assay the test system is adenoviruses. The conditions noted are these: Ct value of 0.6 mg/L min, 5° C.; cited from earlier work.
Assay [1] has as its system Naegleria fowleri (ATCC #30462) cysts. The assay is described as follows: Test for destruction of Naegleria fowleri in de-chlorinated tap water (MPN viability). It counts as cell-based. The note with it: Initial titer 2.42 × 10^3 cysts/mL, 2 L/minute, UV approx. 48 mJ/cm^2, ozone about 0.08 mg/L.
The next assay deals with MS-2 coliphage. The assay can be described thus: Ozone and UV disinfection of MS-2 phage in dechlorinated tap water. The conditions noted are these: Ozone Level (OR) 400 mV, exposure time 5 min; UV Dose 0 mJ/cm^2; room temperature, pH 7.6; MS-2 3.3×10^7 pfu/mL. It counts as cell-based. Here is the method: Propagation and assay of MS-2 coliphage was performed in accordance with Thurston-Enriquez et al. (2003a). Expected UV inactivation was derived from the work of Thurston-Enriquez et al. (2003a).
Ozone was generated by a corona discharge generator and injected into 4 L of dechlorinated tap water at room temperature and pH 7.6. The water was raised and maintained to an Oxidation Reduction Potential (OR) of 400 mV. On addition of the MS-2 to a concentration of 3.3×10^7 pfu/mL, the OR was maintained at 400 mV for five minutes. At the five minute mark, samples were drawn for MS-2 assay and the water was pumped through a UV (low pressure, high output UV lamp 14) at two gallons per minute. The UV dose was calibrated and known to be 12 mJ/cm^2. Following UV treatment, samples were taken for MS-2 assay. A duplicate trial was performed.

Assay [2] has as its system heterotrophic plate count. The conditions noted are these: reduced from 960 cfu/mL; raw water source for drinking water plant; cited from earlier work.
The subject of assay [3] is Adenovirus 2 (ATCC# VR-846). The assay can be described thus: Adenovirus inactivation in de-chlorinated tap water (TCID50 on PLC cells). It is filed as cell-based. The conditions noted are these: Initial titer 1.33 × 10^6 TCID50/ml; 2 L/minute; UV approx. 48 mJ/cm^2; ozone about 0.08 mg/L.
Excerpt: It was capable of processing 2 liters per minute of water. To study the effects of UV light only, the ozone generated by the apparatus was diverted away and not injected into the water stream. The UV dose (mJ/cm^2) was previously calibrated and found to be approximately 48 mJ/cm^2 as determined by MS-2 coliphagae biodosimetry. To study the effects of ozone only, the UW lamp was shrouded with a stainless steel sleeve to prevent any water from being exposed to the UW light from lamp 14. The ozone dose was measured in all cases to be about 0.08 mg/L. To study the combination of UV light with the ozone, the ozone was injected at the base of vessel 22 via a venturi as previously described.
Log Reductions in microorganisms were calculated as follows: Log 10 Reduction=Log10[Final titer]−Log10[Initial titer]
Adenovirus 2 (ATCC# VR-846) was obtained from the American Type Culture Collection. It was maintained on PLC (Primary Liver Carcinoma, ATCC# CRL-8024) cell line monolayers with MEM (Minimal essential Medium modified with Earle's salts) containing 2$ FBS (Fetal Bovine Serum) at an incubation temperature of 35° C. with 5% CO2. Viruses were purified by centrifugation (7756×g) to remove cell debris followed by polyethylene glycol (9% PEG, 0.5 mol/L NaCl) precipitation. […]

“And” between values parts separate entries of the source, which are not always exact repeats. Equal entries are not always repeated.

As for `O=[O+][O-]` [Ozone, ozone], the inactivation of adenoviruses entry with adenoviruses is on record as “more than 4 logs”. Moreover, the results for the “Final Titer” value in assay [1] and in assay [3] were 473 mL⁻¹ and 2.08 × 10^5 TCID50/ml, respectively. Also, the “Log10 Reduction” value in assay [1] was “.071”; in assay [1] (listed as ozone) it was 0.71; in assay [3], 0.81. Besides, the “log Inactivation” value in the assay with MS-2 coliphage was 1 log and 1.06 log and 1.00 log. Also, the “heterotrophic plate count after ozone disinfection stage” value in assay [2] is reported as 680 cfu/mL.
